{
  "source": "paper PMC6913127",
  "about": "“Structures of MERS1, the 5′ processing enzyme of mitochondrial mRNAs in Trypanosoma brucei” (RNA, 2020)",
  "key": {"[1]": {"test_system": "T. brucei MERS1 (residues 37–395)", "assay": "Fluorescence polarization (FP) RNA/DNA binding to MERS1", "design": "species or system Trypanosoma brucei", "details": "25 mM Tris HCl pH 7.5, 5% (v/v) glycerol, 50 mM NaCl; for Binding to MERS1, result in words: 25°C, 1 nM fluoresceinated RNA or DNA", "from_the_text": "We next used FP binding studies to assess RNA binding by purified MERS1. […] We next probed the importance of specific nucleotides in the RNA binding site by performing FP studies on mutant forms of the RNA site.\nFor structural studies, the nucleotides encoding residues 37–395 of MERS1 were cloned into pET15b between the BamHI and NdeI restriction sites. E. coli C41(DE3) cells were transformed with the expression plasmid and protein expression was induced by addition of isopropyl β-D-1-thiogalactopyranoside (IPTG) to a final concentration of 0.5 mM for 4 h at 37°C when the cells had reached an A600 of 0.4–0.6. The cells were reconstituted in 25 mM Tris HCl pH 7.5, 300 mM NaCl, 5% glycerol, 0.5 mM β-mercaptoethanol and lysed with a microfluidizer. The expressed MERS1 protein was found in the soluble fraction and was purified using nickel-nitrilotriacetic acid (Ni-NTA) column chromatography. The protein was further purified by Superdex 75 size exclusion column (SEC) chromatography. MERS1 mutants were made using the Quikchange mutagenesis protocol and expressed and purified as per the WT protein.\nFP experiments were performed using a PanVera Beacon 2000 FP system at 25°C ([Lundblad et al. 1996]). For the experiments, purified proteins were titrated into 0.990 mL buffer composed of 25 mM Tris HCl pH 7.5, 5% (v/v) glycerol and 50 mM NaCl and containing 1 nM (final concentration) fluoresceintly labeled RNA substrate, 5′-GAGAGGGGGUU-3′, or DNA, 5′-GTGAGTACTCAC-3′. Data were fit using KaleidaGraph. Each binding curve is a representative curve from two to three technical replicates. Mutant RNA sites tested were 5′-AAGAGGGGGUU-3′ (Supplemental Fig. S2), 5′-GGGAGGGGGUU-3′, 5′-GAAAGGGGGUU-3′, 5′-GAGGGGGGGUU-3′, 5′-GAGAAGGGGUU-3′, 5-GAGAGAGGGUU-3′, 5′-GAGAGGAGGUU-3′ and 5′-GAGAGGGAGUU-3′."}, "[2]": {"test_system": "T. brucei MERS1 (residues 37–395)", "assay": "FP peptide binding to MERS1", "design": "species or system Trypanosoma brucei", "details": "25 mM Tris HCl pH 7.5, 5% (v/v) glycerol, 150 mM NaCl, 1 nM fluoresceinated peptide (Fig. 4B)", "from_the_text": "We considered that the bound helix provided from crystal packing might mimic a portion of MERS2 or MERS3 that interacts with MERS1. Thus, using the MERS1-peptide contacts we derived a consensus MERS1-peptide interacting motif, (M/L)XXALXXEL and probed the MERS2 and MERS3 sequences for similar motifs. While no homology was found between the sequence and that of MERS3, one strong match for the motif was located within the central PPR motif region of MERS2 (residues 394–402). This region is predicted to be helical and contain a PPR motif in MERS2. Attempts to purify MERS2 or a MERS2 truncation containing this PPR motif for binding analyses, however, were unsuccessful. Thus, we obtained a fluoresceinated peptide encompassing this MERS2 region, F-[…] (where underlined residues correspond to the peptide consensus residues) and utilized this peptide in FP binding studies. […] However, to test whether helical residues observed in the crystal to make contact to MERS1 are involved in binding, we obtained a fluoresceintated peptide in which the first leucine and the glutamic acid in the helix were substituted to prolines (F-[…]).\nFor structural studies, the nucleotides encoding residues 37–395 of MERS1 were cloned into pET15b between the BamHI and NdeI restriction sites. […]"}, "[3]": {"target": "T1, T. brucei MERS1(37–395), his-tagged (Trypanosoma brucei brucei TREU927, UniProt B6SBM0 37-395)", "T1 construct": "MERS1, Trypanosoma brucei, 395 residues; A selenomethionine-substituted form was used for phasing of the GTP crystal; also called mitochondrial edited mRNA stability factor 1; WT MERS1; source: E. coli C41(DE3), pET15b, purified (Ni-NTA, Superdex 75 SEC); not shown: His tag, N-terminal, kept", "T1 sequence": "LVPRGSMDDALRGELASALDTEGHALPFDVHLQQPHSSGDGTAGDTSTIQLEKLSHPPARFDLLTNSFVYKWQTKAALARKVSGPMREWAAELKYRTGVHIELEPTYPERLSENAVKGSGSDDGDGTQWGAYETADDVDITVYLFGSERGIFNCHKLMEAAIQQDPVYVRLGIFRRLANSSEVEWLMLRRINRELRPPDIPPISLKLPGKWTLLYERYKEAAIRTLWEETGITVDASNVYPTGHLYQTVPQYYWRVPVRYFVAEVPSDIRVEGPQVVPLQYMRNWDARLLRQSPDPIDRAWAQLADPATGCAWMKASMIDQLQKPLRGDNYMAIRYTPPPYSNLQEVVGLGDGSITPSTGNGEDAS", "assay": "fluorescence polarisation; purified MERS1 titrated into 1 nM fluoresceinated peptide; 25 mM Tris HCl pH 7.5, 5% (v/v) glycerol, 150 mM NaCl", "details": "both partners purified"}, "MERS1 [4]": {"target": "T2, MERS1 (Trypanosoma brucei brucei TREU927, UniProt B6SBM0 37-395)", "T2 sequence": "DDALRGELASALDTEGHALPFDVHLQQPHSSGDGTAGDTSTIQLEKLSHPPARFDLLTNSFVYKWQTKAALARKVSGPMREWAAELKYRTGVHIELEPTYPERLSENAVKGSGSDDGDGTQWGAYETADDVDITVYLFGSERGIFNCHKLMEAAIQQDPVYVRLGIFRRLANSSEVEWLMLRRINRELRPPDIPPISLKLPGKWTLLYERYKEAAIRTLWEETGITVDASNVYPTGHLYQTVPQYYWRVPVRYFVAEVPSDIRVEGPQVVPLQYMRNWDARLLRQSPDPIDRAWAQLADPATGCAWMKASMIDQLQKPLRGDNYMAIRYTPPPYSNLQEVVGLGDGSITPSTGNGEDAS", "assay": "fluorescence polarization; Results text prints the 12-mer; Methods and Fig. 5 print this 11-mer; FP: 25 mM Tris HCl pH 7.5, 50 mM NaCl, 5% (v/v) glycerol, 1 nM labeled RNA or DNA, 25 C", "details": "protein: recombinant; tags: N-terminal His tag (pET15b, linker LVPRGSM); single-stranded"}, "MERS1 [5]": {"target": "T2, MERS1", "assay": "fluorescence polarization; FP: 25 mM Tris HCl pH 7.5, 50 mM NaCl, 5% (v/v) glycerol, 1 nM labeled RNA or DNA, 25 C", "details": "protein: recombinant, tags: N-terminal His tag (pET15b, linker LVPRGSM); for Kd: single-stranded"}, "MERS1 [6]": {"target": "T2, MERS1", "assay": "X-ray crystallography; 2.60 A; four nucleotides resolved per subunit; FP: 25 mM Tris HCl pH 7.5, 50 mM NaCl, 5% (v/v) glycerol, 1 nM labeled RNA or DNA, 25 C", "details": "protein: recombinant; tags: N-terminal His tag (pET15b, linker LVPRGSM); single-stranded"}},
  "note": "No end group written: not given here.",
  "data": [
    {"molecule": "5′-GAGAGGGAGUU-3′ (RNA, backbone not given here)", "values": [
      {"measurement": "Binding to MERS1, result in words", "setting": "[1]", "value": "did not bind saturably"}
    ]},
    {"molecule": "F-MSNNALDRLINKQKPKVPPRNDVVSESVSN [another fluoresceinated peptide that lacked the consensus residues, reference compound]", "values": [
      {"measurement": "Peptide binding to MERS1, result in words", "setting": "[2]", "value": "failed to interact"}
    ]},
    {"molecule": "F-SVSKQAVCLMERHLRRVPGARRNELKVAPSKPLKER [peptide in which the first leucine and the glutamic acid in the helix were substituted to prolines]", "values": [
      {"measurement": "Peptide binding to MERS1, result in words", "setting": "[2]", "value": "only weak binding"}
    ]},
    {"molecule": "5′-GAGAGGGGGGUU-3′: RNA binding site; also used for the MERS1–RNA crystal structure (RNA, backbone not given here)", "values": [
      {"measurement": "Kd", "setting": "[1]; PanVera Beacon 2000, 25°C, 1 nM fluoresceinated RNA, MERS1 titrated, ± standard error, representative of at least three technical replicates (Fig. 5B)", "value": "40 ± 0.9", "unit": "nM"}
    ]},
    {"molecule": "5′-GAGAGGAGGUU-3′ (RNA, backbone not given here)", "values": [
      {"measurement": "Binding to MERS1, result in words", "setting": "[1]", "value": "did not bind saturably"}
    ]},
    {"molecule": "5′-GAGAGAGGGUU-3′ (RNA, backbone not given here)", "values": [
      {"measurement": "Binding to MERS1, result in words", "setting": "[1]", "value": "did not bind saturably"}
    ]},
    {"molecule": "5′-GTGAGTACTCAC-3′: DNA site used as comparison in FP binding (DNA, backbone and methylation of C not given here; further chemistry not fully specified) [reference compound]", "values": [
      {"measurement": "Binding to MERS1, result in words", "setting": "[1]", "value": "essentially no binding"},
      {"measurement": "Binding to MERS1, result in words", "setting": "[1]; listed as DNA", "value": "no binding"}
    ]},
    {"molecule": "5′-GAGAGGGGGUU-3′: fluoresceintly labeled RNA substrate (RNA, backbone not given here; fluorescein label)", "values": [
      {"measurement": "Binding to MERS1, result in words", "setting": "[1]", "value": "binds MERS1 with high affinity"}
    ]},
    {"molecule": "fluorescein-SVSKQAVCLMERHLRRVPGARRNELKVALSKELKER (MERS2, T. brucei, 946 residue pentatricopeptide repeat protein; limits worked out from that motif; also called MER2 peptide)", "note": "[fluoresceinated MERS2 peptide F-SVSKQAVCLMERHLRRVPGARRNELKVALSKELKER]", "values": [
      {"measurement": "Kd", "setting": "[3]", "value": 2500, "unit": "nM"}
    ]},
    {"molecule": "GAGAGGGGGUU (ssRNA)", "note": "[WT RNA site (11-mer, FP)]", "values": [
      {"measurement": "Kd", "setting": "MERS1 [4]", "value": "40 ± 0.9", "unit": "nM"}
    ]},
    {"molecule": "AAGAGGGGGUU (ssRNA)", "note": "[RNA G1A]", "values": [
      {"measurement": "Kd", "setting": "MERS1 [5]; label: 5' fluorescein", "value": "39 ± 4", "unit": "nM"}
    ]},
    {"molecule": "GAGAGGGGGGUU (ssRNA)", "note": "[RNA 12-mer (crystal)]", "values": [
      {"measurement": "binding result", "setting": "MERS1 [6]", "value": "binds"}
    ]},
    {"molecule": "GGGAGGGGGUU (ssRNA)", "note": "[RNA A2G]", "values": [
      {"measurement": "Kd", "setting": "MERS1 [5]; label: fluorescein", "value": "48 ± 0.9", "unit": "nM"}
    ]},
    {"molecule": "GAAAGGGGGUU (ssRNA)", "note": "[RNA G3A]", "values": [
      {"measurement": "Kd", "setting": "MERS1 [5]; label: fluorescein", "value": "78 ± 4", "unit": "nM"}
    ]},
    {"molecule": "GAGGGGGGGUU (ssRNA)", "note": "[RNA A4G]", "values": [
      {"measurement": "Kd", "setting": "MERS1 [5]; label: fluorescein", "value": "47 ± 5", "unit": "nM"}
    ]},
    {"molecule": "GAGAAGGGGUU (ssRNA)", "note": "[RNA G5A]", "values": [
      {"measurement": "Kd", "setting": "MERS1 [5]; label: fluorescein", "value": "43 ± 5", "unit": "nM"}
    ]},
    {"molecule": "DNA control (dsDNA) DNA 1: GTGAGTACTCAC DNA 2: GTGAGTACTCAC", "values": [
      {"measurement": "binding result", "setting": "MERS1 [5]; label: fluorescein, self-complementary 12-mer, blunt if duplex", "value": "no binding"}
    ]}
  ]
}
